Measured values taken from US11739132B2, “Separation moieties and methods of use thereof” (Werewolf Therapeutics, Inc., priority 2019, dated 2023).
No end group written: not given here.

Legend:
[1] = target: T1, CTSL1 (Homo sapiens, UniProt P07711); assay: In vitro FRET kinetics with CTSL1; type: biochemical; details: 8-mer FRET peptide, Mca/Dnp pair
Protocol: (§1) Enzymes were activated and assayed following the manufacturer's recommendations.
(§2) For CTSL1, enzyme was activated by pre-incubation in assay buffer (50 mM MES, 5 mM DTT, 1 mM EDTA, pH=6) for 15 min. MSP-MS reactions were then started with the mixing of enzyme and substrate, at final CTSL1 concentration of 0.04 ng/μl (0.77 nM), and peptide substrate concentration at 500 nM.
Additional in vitro kinetic experiments were performed to characterize a new candidate motif for CTSL1 enzyme; the CTSL1_2 motif has the sequence […] (SEQ ID NO: 199). […] Yet, initial experiments with the CTSL1_2 FRET substrate were inconclusive, possibly due to artifacts in the FRET assay; therefore, a new FRET peptide construct was designed with the 9-mer sequence […] (SEQ ID NO: 236).
All of the FRET substrates used in these studies have a methoxycoumarin (Mca) fluorophore and dinitrophenyl-lysyl (Dnp) quencher pair at the N- and C-termini of the sequences, respectively.

[2] = target: T1, CTSL1; assay: 30-mer tandem linker library MSP-MS, CTSL1; type: biochemical
Protocol: (§3) Protease specificity screening was performed using Multiplexed Substrate Profiling by Mass Spectrometry (MSP-MS), the method described in, e.g. O'Donoghue A. J. et al., Nat Methods., 2012; 9(11): 1095-1100. This method employs a physico-chemically diverse peptide library as substrates for proteases, and reactions are monitored over time with mass spectrometric detection of cleaved products. The resulting cleavages are assessed for specific cleavage in the enzyme-treated sample by comparison with results from a no-enzyme control incubation.
as §1, §2
This hypothesis was tested in the context of the hybrid linker design experiment. Shown in FIG. 46 are the results of cleavage of two matched 30-mer peptides with the following sequences:
(§4) To analyze the catalytic efficiency of candidate tandem linker designs, a tailored library approach using MSP-MS was applied. For the tailored library, a set of nineteen synthetic peptides, 30 amino acids in length (30-mers), were designed to test whether sequence context affects the efficiency of cleavage. Peptides were assayed in a multiplex format together as a substrate library with individual recombinant enzymes, using MSP-MS. For quantitative comparisons, kinetic analysis was performed over a time course, and results are reported either as a catalytic efficiency kcat/KM for well-behaved first-order kinetics, or as observed rates as kobs for more complex kinetic behavior.
(§5) Catalytic efficiency (kcat/KM) estimations were used to rank the top cleaved substrates in the MSP-MS reaction. Peptides were quantified by mass spectrometric label-free quantitation from the MS1 precursor ion peak areas for each peptide. Enzyme progress curves were modeled from six-time point measurements in GraphPad Prism. Data were fitted using non-linear least squares fitting to the first order kinetics equation:
(§6) [formula] where Y=percent product formation or substrate consumption, and t=time. The observed rate is a function of the enzyme concentration [E0], and an observed catalytic efficiency (kcat/KM) in units M^−1s^−1

[3] = test system: cell lysates of MC38, CT26, CT26-MMP9+ and myofibroblast cell lines; assay: FRET assay of cell lysates (cell-associated activity); type: biochemical, mouse; details: for Cleavage activity detected in cell lysates: four cell lines
Description: (§7) Conditioned media and cell lysate samples were received from Charles River Laboratories for the murine colon cancer cell lines: MC38 (epithelial), CT26 (fibroblast), and CT26 transduced with a lentivirus for doxycyclin-inducible expression of MMP9 (CT26 pLVX MMP9-5T4+dox). An immortalized mouse intestinal myofibroblast cell line (ABM Good #T0565) was used as a control stromal cell line, grown under manufacturer recommended conditions. Conditioned media and cell lysate samples were also received for screening purposes from ABM Good for the immortalized mouse colonic epithelial cell line YAMC (ABM Good #T0567).
(§8) Conditioned media samples were prepared according to the standard protocol using logarithmic phase cells. Briefly, cells were grown for 16h in either serum-free media or in complete media containing 10% fetal bovine serum (FBS). After conditioned media collection, the adherent cells were washed then lysed on plate with non-denaturing lysis buffer to produce a lysed “cell pellet” to capture any activity that remained associated with the cells. All cell culture-derived conditioned media samples, cell lysates from Charles River Laboratories, and cell lysates derived internally were processed with identical methods, to allow comparison between samples.
To test for cell pellet-associated FAPa activity, the cell lysates were clarified by ultracentrifugation and then assayed neat in the FRET assay. […] A modest 2-fold greater activity was detected in the three tumor cell lines over the myofibroblast cell line. For comparison, CTSL1 activity was also tested in the cell lysates. CTSL1 is a lysosomal enzyme; therefore, activity toward CTSL1_1 was expected to be similarly abundant in all four cell lines. The ratio of CTSL1_1 cleavage in tumor vs control cell lines in this screening format was ˜1× (grey bars, left-hand bar of each pair, FIG. 41). FAPα (fibroblast activating protein-alpha) is a marker for fibroblast (CT26) and myofibroblast cell lines.

[4] = test system: conditioned media from tumor, myofibroblast and YAMC cell lines; assay: FRET steady-state kinetics of conditioned media (enzyme equivalents); type: biochemical, mouse; details: for Secreted activity in conditioned media, steady-state kinetics: tumor cell lines
Description: as §7
(§9) In the end-point screening assays, a fixed titer of 10× concentrated sample and a substrate concentration of 10 μM was used. Values reported in the end-point experiments are initial velocity measurements, in relative fluorescence units (RFU) per second. End-point measurements are a starting point for a screen, but the rate of the reaction is non-linearly related to substrate concentration. Therefore, a more accurate representation of activity would be given by steady-state kinetic measurements covering a range of substrate concentrations. To compare activity across cell lines, the data were treated with a Michaelis-Menten model, and the concentration of equivalent enzyme units [E0] was solved.
Accordingly, initial velocity was measured as a function of substrate concentration, using a 2-fold dilution series from 250 to 1 μM. Data were fitted using non-linear least squares fitting with GraphPad Prism software v 8.0 to the Michaelis-Menten equation:
[formula] where kcat is the rate of product formation under steady-state conditions in units (s^−1), and KM is the Michaelis constant that gives the substrate concentration in molar units (M) at which half maximum velocity of the reaction is produced for a given enzyme, [E0] is the enzyme concentration, and [S] the substrate concentration in (M).
In the assays where purified recombinant enzyme is used, the Michaelis-Menten parameters are as classically defined above. For conditioned media samples, the effective titer of conditioned media per assay was adjusted to approximately a 2× concentrate of the original unprocessed media samples to assure that the detection range matched the signal produced. The enzyme component in the calculation is redefined as a mixture of possible proteases that contribute to the cumulative observed activity, each with intrinsic reactivity toward a substrate. In this case, it is more appropriate to consider kcat and KM as macroscopic constants that represent the overall efficiency of catalysis, and E0 is an enzyme equivalent, expressed in units of concentration. To solve the data fit, kcat/KM can be fixed at that of the recombinant enzyme and enzyme equivalents per cell culture volume can be output. The effective titer of enzyme equivalents in this case can be used to compare the activity produced by the different cell lines.
An immortalized mouse colonic epithelial cell line (YAMC) was used to test activity in the presence of additional control “normal” epithelial cells. YAMC's are given the calculated enzyme equivalents (nM) resulting from all of these steady state experiments, to allow for comparison of the amount of equivalent activity per sample. For example, the YAMC control epithelial cell line produced activity with the ADAM17_2 substrate equivalent to that of 0.52±0.03 nM of ADAM17 recombinant enzyme. This cell line compares directly to MC38, also of epithelial origin, which had activity equivalent to that of 0.32±0.03 nM of ADAM17 recombinant enzyme. […] This cell line required non-standard cell culture conditions, including growth with murine IFNγ, and at low temperature to maintain, and may not be fully representative of epithelial cell lines.

[5] = test system: conditioned media from MC38, CT26, CT26 pLVX MMP9-5T4+dox and myofibroblast cell lines; assay: FRET end-point screen of conditioned media; type: biochemical, mouse; details: conditioned media
Description: Proteolytic activity was screened in the conditioned media samples by fluorescent resonance energy transfer (FRET) assays with the substrates listed in Table 10.
as §7, §8
The resulting conditioned media was buffer exchanged with PBS and concentrated to 10× the original titer as a stock solution.
FBS background controls were therefore used for baseline subtraction at each concentration of substrate throughout the FRET experiments.
as §9

[6] = target: T2, FAPα (Homo sapiens, UniProt Q12884); assay: 30-mer tandem linker library MSP-MS, FAPα; type: biochemical; details: at PGGP|AGIG and GP|AGLYAQ respectively
T2 construct: purchased R&D Systems (Bio-techne) 930-ADB-010
T2 sequence (Q12884 1-760): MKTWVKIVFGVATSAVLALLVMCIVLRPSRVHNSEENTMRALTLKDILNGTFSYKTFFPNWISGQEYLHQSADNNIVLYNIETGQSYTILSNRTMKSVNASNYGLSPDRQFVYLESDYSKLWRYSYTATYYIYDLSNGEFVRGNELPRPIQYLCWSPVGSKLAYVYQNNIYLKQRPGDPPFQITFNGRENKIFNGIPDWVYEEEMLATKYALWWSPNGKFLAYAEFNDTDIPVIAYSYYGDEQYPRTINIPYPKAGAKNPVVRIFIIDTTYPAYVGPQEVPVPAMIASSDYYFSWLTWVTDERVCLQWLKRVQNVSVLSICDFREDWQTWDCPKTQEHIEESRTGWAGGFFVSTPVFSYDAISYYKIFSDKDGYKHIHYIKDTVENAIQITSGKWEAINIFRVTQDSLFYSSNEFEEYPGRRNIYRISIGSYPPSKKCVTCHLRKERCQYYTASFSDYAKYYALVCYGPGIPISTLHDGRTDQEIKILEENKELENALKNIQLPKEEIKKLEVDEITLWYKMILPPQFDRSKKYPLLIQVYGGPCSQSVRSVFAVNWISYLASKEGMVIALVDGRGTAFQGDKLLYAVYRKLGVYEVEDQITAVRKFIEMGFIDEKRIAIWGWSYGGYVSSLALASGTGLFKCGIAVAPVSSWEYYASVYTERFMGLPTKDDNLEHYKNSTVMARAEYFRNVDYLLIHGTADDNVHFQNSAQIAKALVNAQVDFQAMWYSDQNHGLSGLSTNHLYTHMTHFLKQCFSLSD
Protocol: as §3, §1
FAPα activity was tested with fluorescence detection using a generic Z-GP-AMC substrate. For FRET assays, the final enzyme concentration was 5 nM and the buffer was 50 mM TRIS HCl, 1 M NaCl, 1 mg/mL BSA, pH 7.5.
as §4, §5, §6

[7] = target: T3, Hepsin (Homo sapiens, UniProt P05981); assay: 30-mer library counter-screening MSP-MS, Hepsin; type: biochemical
T3 construct: purchased R&D Systems (Bio-techne) 4776-SE
T3 sequence (P05981 163-417 limits assumed): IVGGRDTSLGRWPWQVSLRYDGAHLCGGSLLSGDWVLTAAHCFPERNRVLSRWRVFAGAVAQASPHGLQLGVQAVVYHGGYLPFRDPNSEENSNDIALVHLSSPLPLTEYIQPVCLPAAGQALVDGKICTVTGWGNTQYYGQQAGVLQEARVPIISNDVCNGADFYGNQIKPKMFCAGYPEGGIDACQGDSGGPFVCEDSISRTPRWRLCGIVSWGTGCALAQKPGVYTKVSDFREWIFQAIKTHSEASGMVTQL
T3 sequence (P05981 1-162 partner limits assumed): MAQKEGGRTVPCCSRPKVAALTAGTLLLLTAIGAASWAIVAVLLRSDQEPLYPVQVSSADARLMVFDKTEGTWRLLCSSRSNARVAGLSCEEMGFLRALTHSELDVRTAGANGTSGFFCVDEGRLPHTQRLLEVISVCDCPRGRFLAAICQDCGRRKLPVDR
Protocol: as §3, §1
Hepsin was pre-activated overnight at 37° C. in the manufacturer recommended buffer: 100 mM TRIS, 10 mM CaCl2, 150 mM NaCl, 0.05% Brij-35, pH 8.0. Activity was measured with 2.4 or 24 nM enzyme in the buffer: 50 mM TRIS HCl at pH 7.4.
(§10) Counter-screening was performed against the enzymes Thrombin, Factor Xa and Hepsin using this library as well, and for calibration of activity, a positive-control peptide bearing favorable motifs for these enzymes was also designed (ALU30-19).
as §5, §6
(§11) Counter-screening with Thrombin, Factor Xa and Hepsin was also performed following the same analysis. The library peptide Alu30-19 was designed to include authentic sites for each enzyme, for comparison of overall cleavage efficiency as well as cleavage site specificity within each motif. The substrate designed for Factor Xa has the motif FNPR|TFGS (SEQ ID NO: 248), derived from the Factor Xa cleavage site in Thrombin. The substrate motif for Thrombin was FPR|, a common tool substrate motif. The substrate motif for hepsin was RKRR|GSRG (SEQ ID NO: 249) from filaggrin.

[8] = target: T4, Thrombin (Homo sapiens, UniProt P00734); assay: 30-mer library counter-screening MSP-MS, Thrombin; type: biochemical
T4 construct: purchased R&D Systems (Bio-techne) 2196-SE-200
Protocol: as §3, §1
Thrombin was activated following the manufacturer's recommended conditions by pre-incubation with the enzyme with thermolysin for 15 min, and then the thermolysin was quenched with 1,10 phenanthroline treatment. Activated thrombin was assayed at 1.2 nM in activation buffer: 50 mM TRIS HCl, 10 mM CaCl2, 150 mM NaCl, 0.05% (w/v) Brij-35, pH 7.5.
as §10, §5, §6, §11

T1 sequence (P07711 114-333): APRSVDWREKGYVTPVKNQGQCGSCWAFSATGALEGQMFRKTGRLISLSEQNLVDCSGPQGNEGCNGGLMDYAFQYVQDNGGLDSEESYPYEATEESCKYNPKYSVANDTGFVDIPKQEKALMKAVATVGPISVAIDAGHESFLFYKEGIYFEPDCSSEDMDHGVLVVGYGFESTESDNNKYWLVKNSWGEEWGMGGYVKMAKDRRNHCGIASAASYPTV

Cleavage of motif by FAPα [6] | Relative efficiency of 30-mer peptide cleavage by CTSL1 [2] | Relative efficiency of cleavage by hepsin [7] | Relative efficiency of 30-mer peptide cleavage by thrombin [8] | Sequence | Cleavage of 8-mer FRET substrate by CTSL1 [1] | −1 site product formation by CTSL1 ([2]; matched 30-mer peptides SEQ ID NO: 207 (CTSL1_1) and 219 (CTSL1_2)) | Cell-associated activity, MC38 vs other cell lines ([3]; cell lysates) | Ratio of cleavage in tumor vs control cell lines, cell lysates ([3]; cell lysates assayed neat) | Cleavage activity detected in cell lysates [3] | Secreted activity in conditioned media, steady-state kinetics [4] | Substrate cleavage activity, CT26-MMP9+ cell line ([5]; end-point screen) | Substrate cleavage activity, MC38 and CT26 parental cell lines ([5]; end-point screen) | Substrate cleavage activity, control myofibroblast cell line ([5]; end-point screen) | Cell-associated activity in myofibroblasts ([3]; cell lysates) | Activity in three tumor cell lines over myofibroblast cell line, cell lysates ([3]; cell lysates assayed neat) | Secreted activity in myofibroblast conditioned media, steady-state kinetics ([4]; myofibroblast) | Substrate cleavage activity in the end-point screen [5]
 |  |  |  | ALFKSSFP (also: Mca fluorophore and Dnp quencher, places not given here) [CTSL1_1, FRET substrate with Mca fluorophore and Dnp quencher] | highly efficiently | had a −1 site product | significantly greater in MC38 cells over the myofibroblast, CT26 parental, and CT26-MMP9+ cells | ~1 × | detected in all of the cell lysates | no measurable activity above background | undetectable activity | low activity | undetectable activity |  |  |  | 
able to cleave |  |  |  | PGGPAGIG (also: Mca fluorophore and Dnp quencher, places not given here) [FAPα_1, FRET substrate with Mca fluorophore and Dnp quencher] |  |  |  |  | detected in all four cell lines | lower activity than that associated with the cell pellet |  |  |  | did have cell-associated activity | 2 fold | no measurable secreted activity | very low, but was still detected in all three tumor cell lines
 | lower CTSL1 activity | slightly higher hepsin susceptibility | cleaved at lower efficiency | RGGGPAGLYAQPLAQKLKSSALFKSSFPGG [Alu30-15] |  |  |  |  |  |  |  |  |  |  |  |  | 
